How the values were obtained:
[1] = target: T1, recombinantly expressed OR2AT4 (Homo sapiens, UniProt A6NND4); experiment: CRE dual luciferase assay in OR2AT4-transfected Hana3A cells; format: cell-based; settings: for activation of the recombinant receptor in the CRE luciferase assay: 4-hour incubation, OR2AT4 expressed in Hana3A cells; for concentration required to produce a significant effect at the receptor: CRE luciferase assay
T1 construct: expressed in transfected cells; host or cells: Hana3A cells, transient transfection with pcDNA3-OR2AT4 by the calcium phosphate method
T1 sequence (A6NND4 1-320): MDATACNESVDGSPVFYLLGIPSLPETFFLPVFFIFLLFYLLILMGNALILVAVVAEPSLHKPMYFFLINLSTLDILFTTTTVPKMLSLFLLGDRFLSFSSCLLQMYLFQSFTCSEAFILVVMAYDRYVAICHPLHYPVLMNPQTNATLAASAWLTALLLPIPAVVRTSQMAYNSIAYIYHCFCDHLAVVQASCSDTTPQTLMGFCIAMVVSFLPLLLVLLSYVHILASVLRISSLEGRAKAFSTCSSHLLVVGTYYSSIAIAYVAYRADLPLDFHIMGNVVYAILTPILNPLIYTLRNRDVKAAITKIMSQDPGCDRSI
Excerpt: In order to verify calcium imaging results and investigate dose-dependent activation of OR2AT4, a further method of deorphanization based on a dual luciferase system was used. In this method, in addition to the OR, two luciferases were introduced into the Hana3A cells. When the expressed OR is activated by an odorant and cAMP is formed in the further course of the signal cascade, this initiates expression of firefly luciferase via CRE (cAMP response elements). The second luciferase, Renilla luciferase, serves as a control for transfection and vitality of the cells. By calculating the two luciferase values, the activation capacity of an OR by an odorant can be determined. In the CRE luciferase assay, the odorant remains on the cells for hours in order to ensure that the luciferase is expressed. Because of the longer incubation time of the odorants and the possibility of activating more receptors in a 96-well format, this method is more sensitive than calcium imaging and is well-suited for establishing dose-response relationships.
For Brahmanol, however, a higher concentration (≥75 μM) was required than for Sandalore® (≥25 μM) in order to produce a significant effect at the receptor (FIG. 3c).
Determination of receptive field of recombinantly expressed OR2AT4. […] As a control, untransfected Hana3A cells were simulated with Sandalore®. 100 μM of ATP was used at the end of each measurement as a positive control stimulus. […] The mean response rate including standard error of the cells is shown relative to the Ringer control. […] Isobornyl.: isobornyl cyclohexanol; S. öl: sandalwood oil. Kruskal-Wallis test with multiple comparison. *: p<0.05. […] Significance was determined between Hana3A cells transfected with OR2AT4-pcDNA3 and pcDNA3 without an insert. The dots show mean normalized luciferase-activity including standard error. Mann-Whitney U test; n=3 experiments. *: p<0.05; **: p<0.01; ***: p<0.001.

primary keratinocytes [2] = experiment: In vitro wound scratch assay, primary keratinocytes; format: cell-based, human; settings: 500 μM, observed for two days
Excerpt: The MAP kinases p38 and ERK1/2 are often associated with increased proliferation and migration in epidermal wound healing. For this reason, in a further physiological experiment, the effect of Sandalore® on “wound healing” of a confluent cell layer of HaCaT cells or primary keratinocytes was investigated. For this purpose, the wound scratch assay was used, which is an established in vitro method for initial investigations of wound healing processes in keratinocytes.
Effect of Sandalore® stimulation on human keratinocytes in an in vitro “wound healing” assay. Investigation of the “wound healing rate” of A) primary keratinocytes and B) HaCaT cells by means of a wound scratch assay in the presence of Sandalore® (500 μM) or 0.1% DMSO as a control. Left: Transmitted light images of the “wound” observed at various times. The growth margin of the cells was surrounded in black. Scale: 200 μm. Right: Quantitative evaluation of the wound scratch assay. The areas of the wounds were measured and compared to the initial wound (0 h). Mean values including standard error. Mann-Whitney U test; n=4 experiments. *: p<0.05; ***: p<0.001. […] The measured wound areas of the treated cells (after 48-hour stimulation) were compared to the control (0.1% DMSO). […] The measured wound areas of the treated cells were compared to the control (0.1% DMSO). […]

primary keratinocytes [3] = experiment: Morphology and propidium iodide staining after 5-day stimulation, primary keratinocytes; format: cell-based, human; settings: 5-day incubation with 500 μM
Method: In order to obtain initial data on possible physiological effects caused by the activation of OR2AT4, HaCaT cells and primary keratinocytes were stimulated for five days with Sandalore®. […] A lethal effect of the odorant can therefore be ruled out (FIG. 16a).
Effect of Sandalore® long-term stimulation on morphology, growth, and migration processes in keratinocytes. A) Phase contrast image and PI stains of HaCaT cells and primary keratinocytes after stimulation with Sandalore® (500 μM) or 0.1% DMSO (control) for five days. On positive PI staining, the cell nuclei are stained red. Scale: 100 μm. B) Evaluation of the proliferation assay carried out with the CyQuant Cell Proliferation Kit on HaCaT cells after 5-day stimulation with 500 μM of Sandalore® or 0.1% DMSO (control). For the RNA interference experiments, the cells were transfected with siRNA or scRNA on the day before Sandalore® stimulation. Shown is the mean cell count including standard error relative to untreated cells. Mann-Whitney U test; n=3 experiments. *: p<0.05; **: p<0.01. S: Sandalore. C) Agarose assay for determination of migration of HaCaT cells. Top: Transmitted light images of HaCaT cells that have migrated in the direction of Sandalore® (500 μM) or 0.1% DMSO. […] The longest path traversed by the cells and the overgrown area were measured and compared to the control (0.1% DMSO). […]

SMILES	activation of the recombinant receptor in the CRE luciferase assay [1]	concentration required to produce a significant effect at the receptor [1] [µM]	faster closing of the scratch (primary keratinocytes [2]) [%]	morphological changes or PI staining (lethal effect) (primary keratinocytes [3])
CC1=CCC(CCC(C)CO)C1(C)C (stereo not shown) [Brahmanol®]	significant dose-dependent activation	≥ 75	34	–
CC1=CCC(CCC(C)C(C)O)C1(C)C (stereo not shown) [Sandalore®]	significant dose-dependent activation	≥ 25	34	neither the HaCaT cells nor the keratinocytes showed morphological changes or PI staining
